Like-named read-outs stand apart in the source and are kept apart here.
Key:
[1] = test system: bone reabsorption (metaphyseal bone density); assay: Metaphyseal bone density / inhibition of bone reabsorption in rats treated for 7 days; format: in vivo; conditions: 7 days, rats
skull cells = assay: cells; format: cell-based, Wistar rats; conditions: for activity at 2.5 µM / activity at 25 µM / activity at 250 µM: Rattus norvegicus, read-out: Effect on the cellular number ± S.E.M.
Method: (§1) Cellular culture: the cells are cultured according to the method described by Fast et al, (Biochem. J. 172, 97-107 (1978)). By way of summary, the skulls removed from Wistar rats, one day old, are digested with collagenase. The cells set free are placed on a plate with concentration of 200,000 cells per cc of medium in disks "clusters" suitable for culture, the plates having 24 wells of 1.6 cm in diameter containing 0.5 cc of medium. The cells are cultivated in the essential minimum medium containing 10% of foetal calf serum in an atmosphere of 5% CO2 at 37° up to the eighth day. The bisphosphonates are added on the first day up to the end of the experiment. The medium is changed on the first, fourth and seventh day.
The cells are counted with a Coulter counter after they have been set free from the disks by digestion with a mixture of collagenase and trypsin.

[2] = for product Ca++ × Pi in solution after incubation: 37° C., two days, control 29, prior to incubation 114.7
Method: A model system is used to evaluate the ability of the phosphonates to inhibit the formation of crystals in inorganic solutions. Three solutions are prepared according to Fleisch.
The pH is brought to 7.4 by means of potassium hydroxide. The concentration of Ca^++ was 6.7 mg%, a level similar to the calcium in blood which has been subjected to untrafiltration and the concentration of the inorganic phosphate Pi give a product Ca^++ ×Pi=80. The solution was analyzed for Ca^++ and Pi and was distributed in Erlenmeyer flasks 12 cc each. The flasks were divided in groups as follows:
and then they are incubated under stirring at 37° C. for two days.
At the end of incubation, the solutions are passed through "millipore filters" for the purpose of retaining the ctystals which are formed during the incubation; the filtrate then is analyzed for Ca^++ and Pi. The results are also reported in Table 2 as the product of Ca^++ x Pi in the solution at the end of the experiment.

in vivo = conditions: mouse, Swiss mice, read-out: DL50 (the source's name)
Method: For this study Swiss mice, both male and female, have been utilized: during the experiment, the animals are fed according to the method with Altromin in the form of tablets. For the oral and intraperitoneal administration, there are used 5% gum arabic solutions while saline solutions of pH 4 are used for the intravenous injections.
The preliminary values of DL50 are calculated according to a graphic method.

[3] = test system: skull cells (lactate production); assay: cells; format: cell-based, Wistar rats; conditions: for activity at 2.5 µM / activity at 25 µM / activity at 250 µM: Rattus norvegicus, 16 h, read-out: Effect on the production of lactate ± S.E.M.
Method: as §1
On the seventh day, the medium is changed and the cells are incubated for 16 hours. The lactate produced during this period is measured in an extract in HClO4 of the medium using lactatodehydrogenase.

[4] = test system: bone reabsorption and mineralization (tibia, trabecular metaphysis); format: in vivo, Wistar rats
Method: Groups of five Wistar rats of weight 180-200 grams are treated for a period of seven days with 0.1, 1.0 and 10 mg of P/kg of the following biphosphonic acids:
The animals kept as a control were administered the solvent with NaCl. All the treatments were carried out by the subcutaneous route. […] The animals were fed with Altromine 1314 containing 1.1 g/100 g P and 250 IU/100 g of vitamin D3. On the eighth day, the animals were killed and the tibia was removed and fixed in 50% ethanol. The tibiae were then dehydrated in increasing concentration of ethanol and allowed to soak in methylmethacrylate after the addition of Plastoid N. Frontal sections were removed and cut to a thickness of 70-80 μm and then the sections were submitted to microradiography. This procedure permitted to evaluate the density of the mineral in the trabecular metaphysis according to the method of Shenk et al., Calc. Tiss. Res. 11, 196-214, 1973).
One animal per group has been evaluated.

For `O=P(O)(O)C(Cl)(Cl)P(=O)(O)O` [Cl2 MBP, dichloromethanebiphosphonic acid], the metaphysical density ([1]; 0.1 mg P/kg s.c., s.c. NaCl controls 29.72) was 38.21 % volume of calcified tissue, the metaphysical density ([1]; 1.0 mg P/kg s.c., s.c. NaCl controls 29.72) was 47.00 % volume of calcified tissue and the metaphysical density ([1]; 2.0 mg P/kg p.o., p.o. NaCl controls 28.45) was 31.20 % volume of calcified tissue. For the same compound, the metaphysical density ([1]; 10.0 mg P/kg s.c., s.c. NaCl controls 29.72) was 52.65 % volume of calcified tissue, the “effect on the number of cells, in words” value (skull cells) was “causes a decrease in the number of cells” and the activity at 2.5 µM (skull cells; 2.5 μM) was 103 ± 0.7%. For the same compound, the activity at 25 µM (skull cells; 25 μM) was 86.4 ± 2.1%, the activity at 250 µM (skull cells; 250 μM) was 54.5 ± 1.9% and the “product Ca++ × Pi in solution after incubation” value (“product Ca++ × Pi in solution” below) ([2]; 0.5 μM) was 44.0. For the same compound, the “product Ca++ × Pi in solution” value ([2]; 2.5 μM) was 60.4, the “product Ca++ × Pi in solution” value ([2]; 5.0 μM) was 73.6 and the LD50 (in vivo; ip) was 750 mg/kg. The LD50 (in vivo; iv) was 130 mg/kg, the LD50 (in vivo; po, os) was > 2000 mg/kg and the “effect on the production of lactate, in words” value [3] was “diminishes it”. The activity at 2.5 µM ([3]; 2.5 μM) was 87.5 ± 4%, the activity at 25 µM ([3]; 25 μM) was 67.1 ± 2.8% and the activity at 250 µM ([3]; 250 μM) was 16.9 ± 2.2%.
In the case of `O=P(O)(O)C(F)(F)P(=O)(O)O` [F2 MBP, difluoromethanebiphosphonic acid], the “effect on the number of cells, in words” value (skull cells) is reported as “no effect or a very small effect”, the activity at 2.5 µM (skull cells) is reported as 88.1 ± 1.4% and the activity at 25 µM (skull cells) is reported as 92.4 ± 1.9%. For the same compound, the activity at 250 µM (skull cells) was 99.3 ± 2%, the “product Ca++ × Pi in solution” value ([2]; 0.5 μM) was 44.6 and the “product Ca++ × Pi in solution” value ([2]; 2.5 μM) was 58.5. The “product Ca++ × Pi in solution” value ([2]; 5.0 μM) was 72.0, the “inhibitory activity on the formation and growth of crystals of apatite” value ([2]; in vitro) was “inhibits the growth in vitro of the crystals of apatite” and the LD50 (in vivo; ip) was 450 mg/kg. The LD50 (in vivo; iv) was 70 mg/kg, the LD50 (in vivo; po, os) was > 2000 mg/kg and the “effect on the production of lactate, in words” value [3] was “no effect”. For the same compound, the activity at 2.5 µM [3] was 112 ± 4.4%, the activity at 25 µM [3] was 106 ± 3.9% and the activity at 250 µM [3] was 99.7 ± 4.7%. The “effect on mineralization, in words” value ([4]; 10 mg of P/kg / high dosage where stated) was “no effect on the bone reabsorption or on the bone mineralization” and the “effect on bone reabsorption, in words” value ([4]; rat, in vivo) was “no effect on the bone reabsorption”.
